Article PMC11020070, “Discovery of Protease-Activated Receptor 4 (PAR4)-Tethered Ligand Antagonists Using Ultralarge Virtual Screening” (ACS Pharmacology & Translational Science, 2024)
Like-named read-outs stand apart in the source and are kept apart here.

Key:
mouse PAR4 = target: T1, mouse PAR4 (Mus musculus, UniProt O88634); experiment: Mouse platelet activity assay, flow cytometry, γ-thrombin activation; format: cell-based
T1 construct: washed mouse platelets were prepared by collecting cardiac puncture blood; endogenous in cells; host or cells: washed mouse platelets (cardiac puncture blood)
T1 sequence (O88634 17-396): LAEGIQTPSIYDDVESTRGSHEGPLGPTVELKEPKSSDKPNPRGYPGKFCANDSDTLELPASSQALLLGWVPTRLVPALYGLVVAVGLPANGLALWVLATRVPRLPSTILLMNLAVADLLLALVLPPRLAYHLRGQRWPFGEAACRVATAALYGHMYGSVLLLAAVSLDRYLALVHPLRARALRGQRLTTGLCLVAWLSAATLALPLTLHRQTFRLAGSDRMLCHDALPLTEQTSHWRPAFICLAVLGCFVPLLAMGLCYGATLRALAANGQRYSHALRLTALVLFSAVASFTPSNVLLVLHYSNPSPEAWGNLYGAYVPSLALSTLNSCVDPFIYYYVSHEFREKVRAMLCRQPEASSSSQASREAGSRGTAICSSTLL
Method: For mouse PAR4 activity, washed mouse platelets were prepared by collecting cardiac puncture blood with 200 μL of 20 U/mL heparin. Following centrifugation at 1000 rpm for 15 min, plasma and buffy coat were collected into a separate tube and spiked with apyrase and PGE1. After centrifuging at 1000 rpm for 8 min, the platelet-rich plasma was transferred to another tube and centrifuged at 2200 rpm for 10 min to pellet the platelets. Platelets were resuspended in TBB + apyrase + PGE1. Platelets were counted and diluted in TBB to a final concentration of 2 × 10^7 platelets/mL. 50 μL of platelets were aliquoted to each tube preincubated with 50 μL of TBB with antibodies for mouse GPIIbIIIa and P-selectin (Emfret, Eibelstadt Germany) and either test compound antagonist or DMSO control. Platelets were activated with 316 nM γ-thrombin for 30 min. Samples were then fixed with 100 μL of 2% paraformaldehyde for 20 min and diluted with 300 μL of PBS. Flow cytometry counts are measured as for human platelets on a three-laser BD LSRFortessa (Becton Dickinson) and analyzed with FloJo software.

PAR4 = target: T2, PAR4 (Homo sapiens, UniProt Q96RI0); experiment: Human platelet activity assay, flow cytometry, γ-thrombin activation; format: cell-based; set-up: endogenous in cells; host or cells: washed human platelets from healthy volunteers; conditions: human platelets, 100 nM γ-thrombin
T2 sequence (Q96RI0 18-385): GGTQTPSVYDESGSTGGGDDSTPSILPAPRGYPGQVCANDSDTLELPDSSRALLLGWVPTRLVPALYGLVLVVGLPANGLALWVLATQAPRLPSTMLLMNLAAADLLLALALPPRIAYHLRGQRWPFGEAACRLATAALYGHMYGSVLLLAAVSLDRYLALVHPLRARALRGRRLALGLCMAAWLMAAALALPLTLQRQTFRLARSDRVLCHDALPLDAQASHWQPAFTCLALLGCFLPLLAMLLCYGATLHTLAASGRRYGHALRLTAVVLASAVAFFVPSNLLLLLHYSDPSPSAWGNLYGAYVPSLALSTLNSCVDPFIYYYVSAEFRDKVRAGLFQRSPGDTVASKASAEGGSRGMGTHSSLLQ
Method: To test the antagonistic effect of the compounds on PAR4, a flow cytometry assay of human platelets was employed. Each compound was screened at 10 μM in human platelets using flow cytometry for GPIIbIIIa activation (PAC1) and P-selectin (CD62p) expression as previously described.[4] Activation of GPIIbIIIa allows interaction with divalent fibrinogen or multivalent von Willebrand factor, leading to platelet aggregation.[41] PAR4 stimulation also triggers α-granule secretion containing P-selectin.[5] […] Platelets were treated with each test compound or vehicle control DMSO before activating with γ-thrombin (100 nM) or PAR4 agonist peptide mimetic (200 μM, “PAR4-AP” AYPGKF) for 30 min. γ-thrombin activates PAR4 but not PAR1.[42]
Activation of washed human platelets was monitored by flow cytometry for the detection of PAC1 (GPIIbIIIa activation) and CD62p (P-selectin expression) binding as previously described.[4] Human platelets were obtained from healthy volunteers. The Vanderbilt University Internal Review Board approved these studies. Informed consent was obtained from all individuals prior to the blood draw. 10 mL of whole blood was collected into 0.32% Na citrate. Platelet-rich plasma was collected after room-temperature centrifugation at 1100 rpm for 15 min on a Thermo Forma 400 centrifuge (Thermo Fisher, Waltham, MA). 1/10 volume of acid citrate dextrose (ACD) buffer was added to the collected supernatant and incubated for 10 min. After centrifugation at 2400 rpm for 10 min, the platelet pellet was resuspended in 1 mL Tyrode’s buffer (“TBB”: 15 mM HEPES, 0.33 mM NaH2PO4, pH 6.4, 138 mM NaCl, 2.7 mM KCl, 1 mM MgCl2, 5.5 mM dextrose, 0.1% bovine serum albumin). Platelets were collected, counted on a Z1 Coulter Particle Counter (Beckman Coulter, Brea, CA), and diluted in TBB to 1.5 × 10^7 platelets/mL. 60 uL of platelets were aliquoted to each tube and preincubated with 40 μL of TBB with antibodies PAC1 FITC (Becton Dickinson, Franklin Lakes NJ) and P-selectin PE (Becton Dickinson) and either test compound antagonist or DMSO vehicle control for 20 min. Platelets were then activated with 100 nM γ-thrombin or other agonists for 30 min. Samples were then fixed by adding 100 μL of 2% paraformaldehyde. After 30 min, samples were diluted by adding 300 μL of phosphate-buffered saline (PBS) and stored at 4C. Data were collected on a three-laser BD LSRFortessa (Becton Dickinson) and analyzed with FlowJo software (FlowJo LLC, Ashland, OR). The mean fluorescence intensity (geometric) of PE and FITC was determined from 30,000 events after compensation correction. Data were normalized to vehicle (DMSO) controls.
Compounds were screened for inhibition activity against human PAR4 using 100 nM γ-thrombin or 200 μM PAR4-AP in a single-point assay (10 μM test compound).

[1] = set-up: method as in PMID 35758258, PMID 23222541; conditions: phase I, healthy participants; cited from earlier work
[2] = Microsomal stability, human liver microsomes; format: in vitro ADME
Method: The metabolic stability of each compound was investigated in mouse and human hepatic microsomes using substrate depletion methodology (% parent compound remaining). Prior to use, microsomes were removed from the freezer and allowed to thaw in a 37 °C water bath before being placed on wet ice.
In separate 96-well plates for each time point, a mixture of 0.1 M potassium phosphate-buffered (pH 7.4), 3 mM MgCl2, and 2.5 mg/mL microsomes were prewarmed at 37 °C for 5 min. Following the preincubation, a 1 μM test compound and 1 mM NADPH (for 3, 7, 15, 25, or 45 min time points) or buffer (for 0 min time point) were added to initiate the reaction. Under standard conditions, reactions were initiated with the addition of NADPH. To delineate the contribution of esterases, some experiments were initiated by the addition of substrate in the presence or absence of NADPH. Plates were incubated at 37 °C under ambient oxygenation. At the respective times, each plate’s reaction was precipitated by the addition of 2 volumes of ice-cold acetonitrile containing an internal standard (carbamazepine, 50 nM). The plates were centrifuged at 4000 rcf (4 °C) for 5 min. The resulting supernatants were transferred and diluted 1:1 (supernatant:water) into new 96-well plates in preparation for LC/MS/MS analysis. Each compound was assayed in triplicate within the same 96-well plate. The in vitro half-life (t1/2, min, eq 1), intrinsic clearance (CLint, mL/min/kg, eq 2), and subsequent predicted hepatic clearance (CLhep, mL/min/kg, eq 3) were determined employing the following equations [drawing 1] 1 [drawing 2] 2 [drawing 3] 3 The estimated percent contribution to metabolism was calculated from the percent substrate lost plots generated from metabolic incubations initiated with the addition of a test compound. Calculations compared the area under the curve (AUC) from conditions in the presence and absence of NADPH and buffer-only (control) conditions (eqs 4 and 5). AUC was calculated by using the trapezoidal method [drawing 4] 4 [drawing 5] 5
The analysis of in vitro samples from microsomal stability or plasma protein binding experiments was determined by employing LCMS/MS with an electrospray ionization-enabled 5500 Sciex instrument (Sciex, Foster City, CA) that was coupled to Agilent HPLC pumps and an autosampler (Agilent Technologies, Santa Clara, CA). Analytes were separated by gradient elution using a Kinetex C18 column (2.1 mm × 50 mm, 5 μm; Phenomenex, Torrance, CA) warmed to 35 °C. Mobile phase A was 0.5% formic acid in water, and mobile phase B was 0.5% formic acid in acetonitrile. […] The total run time was 2.8 min, and the HPLC flow rate was 0.5 mL/min. Mass spectral analyses were performed using multiple reaction monitoring, with transitions and voltages specific for each analyte using a Turbo Ion Spray source (source temperature of 500 °C) in positive ionization mode (5.0 kV spray voltage). Multiple reaction monitoring transitions were the following: 6110B8 (m/z 345.02 → 149.03, DP = 31; EP = 10; CE = 37 and CXP = 14), 6G3R (m/z 421.06 → 225.12, DP = 91; EP = 10; CE = 39 and CXP = 12), 5D22 (m/z 309.068 → 211.16, DP = 131; EP = 10; CE = 29 and CXP = 12), and carbamazepine (m/z 237 → 194, DP = 96; EP = 10; CE = 25 and CXP = 8). Data were analyzed using OS Sciex Analyst 1.5.1 (SCIEX, Framingham, MA), Graphpad Prism 10.1.0 (GraphPad Software, Boston, Massachusetts), and Microsoft Excel version 2310 (Microsoft, Redmond, WA).

[3] = Plasma protein binding, human plasma; format: in vitro ADME; conditions: pH 7.4, read-out: human PPB fu
[4] = mouse platelets, 316 nM γ-thrombin, GPIIbIIIa (JonA), read-out: Mouse Platelets JonA IC50
[5] = mouse platelets, 316 nM γ-thrombin, P-selectin, read-out: Mouse Platelets P-Sel IC50
[6] = GPIIbIIIa activation (PAC1), read-out: Human Platelets PAC1 IC50
[7] = P-selectin (CD62p), read-out: Human Platelets P-Sel IC50

Structure (SMILES)	IC50 (mouse PAR4; [4]) [nM]	IC50 (mouse PAR4; [5]) [nM]	IC50 (PAR4; [6]) [nM]	IC50 (PAR4; [7]) [nM]	safety and tolerability [1]	IC50 (mouse PAR4; Table 4 summary, read-out: mouse PAR4 IC50) [nM]	CLint scaled at 1 µM ([2]; pH 7.4, human liver microsomes, in vitro, reaction started with NADPH) [mL/min/kg]	human CLhep ([2]; predicted hepatic clearance from human liver microsomes) [mL/min/kg]	fraction unbound at 4 h [3]
Cn1nc(C(=O)Nc2n[nH]c(-c3ccccc3Cl)n2)cc1C1CC1 [Compound 14]	1340	1290	835	1040	–	–	–	–	–
COc1cc(OCc2csc(-c3ccc(C(=O)N(C)C)cc3)n2)c2cc(-c3cn4nc(OC)sc4n3)oc2c1 [BMS-986141]	–	–	–	–	safe and well tolerated	–	–	–	–
CCc1cc(C(=O)Nc2n[nH]c(-c3c(F)cccc3F)n2)nn1C [Compound 15]	672	807	495	580	–	–	–	–	–
Cc1n[nH]c(NC(=O)c2nn(-c3cccc(F)c3)c3c2CCC3)n1 [Compound 19]	1190	1140	923	1390	–	–	–	–	–
O=C(Nc1n[nH]c(-c2cccc(OC(F)F)c2)n1)c1nn(-c2ccccc2)c2c1CCCC2 [Compound 33]	296	345	–	–	–	296	416	20	0.006
O=C(Nc1n[nH]c(C2CC2)n1)c1nn(-c2ccccc2)c2c1CCC2 [Compound 24]	958	1130	392	523	–	–	–	–	–
O=C(Nc1n[nH]c(C2CC2)n1)c1nn(-c2ccccc2)c2c1CCCC2 [Compound 26]	354	351	182	228	–	–	–	–	–
CC(C)c1cc(C(=O)Nc2n[nH]c(-c3c(F)cccc3F)n2)nn1C [Compound 11]	1090	1630	606	847	–	–	–	–	–
O=C(Nc1n[nH]c(C2CC2)n1)c1nn(-c2cccc(F)c2)c2c1CCCC2 [Compound 28]	981	793	254	280	–	–	–	–	–
Cc1nc(NC(=O)c2cc(-c3ccccc3)[nH]n2)n[nH]1 [Compound 8]	–	–	2790	2210	–	–	–	–	–
O=C(Nc1n[nH]c(-c2ccccc2)n1)c1nn(-c2ccccc2)c2c1CCCC2 [Compound 29]	1110	1160	450	603	–	–	–	–	–
Cn1nc(C(=O)Nc2n[nH]c(-c3ccccc3F)n2)cc1C1CC1 [Compound 13]	715	699	593	630	–	–	–	–	–
N#Cc1ccc(-c2nc(NC(=O)c3nn(-c4ccccc4)c4c3CCCC4)n[nH]2)cc1 [Compound 30]	1840	1420	395	496	–	–	–	–	–
Cn1nc(C(=O)Nc2n[nH]c(-c3ccc(C#N)cc3)n2)cc1C1CC1 [Compound 16]	1140	1180	460	569	–	–	–	–	–
Cc1n[nH]c(NC(=O)c2nn(-c3ccc(F)cc3)c3c2CCC3)n1 [Compound 21]	–	–	3250	4780	–	–	–	–	–
Cc1nc(NC(=O)c2cc(C(=O)OC(C)(C)C)n(-c3ccccc3)n2)n[nH]1 [Compound 10]	11300	6160	1130	1160	–	–	–	–	–
O=C(Nc1n[nH]c(-c2cccc(C(F)(F)F)c2)n1)c1nn(-c2ccccc2)c2c1CCCC2 [Compound 27]	367	368	152	208	–	–	–	–	–
